Assay results reported in US20250084453A1, “SYSTEMS, COMPOSITIONS AND METHODS FOR IDENTIFYING E3 LIGASE SUBSTRATES BY UBIQUITIN BIOTINYLATION” (The Broad Institute, Inc., priority 2022, published 2025).

System: GSPT1
Experiment: Streptavidin pulldown and Western blot of biotinylated ubiquitinated GSPT1 in 293T CRBN-/- CRBN-BirA cells
Type: cell-based, human
Procedure: However, instead of assessing transiently-expressed V5-tagged IKZF1, an endogenous neo-substrate of CRBN, namely, GSPT1, was assessed. […] Following incubation with the components and added agents, the cells were lysed, and streptavidin-coated beads were used to capture from the cell lysate biotinylated, ubiquitinated proteins, e.g., the endogenous GSPT1 substrate. The biotinylated proteins eluted from the beads were subjected to Western blot analyses.
The cells were either treated or untreated with carfilzomib (0.4 μM) for 1 hour and were either treated or untreated with the CRBN-IMiD modifying agent CC-885 (1 μM) for another hour. […] As discussed above in Example 1, the GSPT1 substrate of BirA-tagged CRBN is expressed endogenously in 293T cells.
The preparation of cellular lysate was as described above for Cell Lysis, except that the RIPA buffer was supplemented with COMPLETE™ EDTA-free protease inhibitor cocktail (Roche; 04693159001; 1 tablet per 10 ml of buffer), benzonase (Millipore; E1014; 1 μl per 10 ml of buffer), 1.5 mM MgCl2, 1 mM EGTA, and 10 mM NEM (N-ethylmaleimide). For each sample, 1 ml of 3 mg/ml lysate was rotated overnight at 4° C. with 50 μl of resuspended streptavidin Sepharose beads (CYTIVA™; 17511301), which were pre-washed with RIPA lysis buffer 3 times. For all steps that required pelleting of beads, centrifugation was performed at 400×g for 1 minute. On the next day, streptavidin beads were pelleted, and the supernatant (a.k.a. flow-through) was either saved for analysis by Western blotting or was discarded. Streptavidin beads were then washed two times with 1 ml of 2% SDS wash buffer (2% SDS, 25 mM Tris-HCl, pH 7.5), and three times with 0.5-1 ml of 2M urea wash buffer (2M urea, 50 mM Tris-HCl, pH 8). Between each wash, the beads were rotated at room temperature for at least 5 minutes. During the last wash, the beads and the washing buffer were transferred to a new microfuge tube. […] For mass spectrometry-based analysis, the procedures described in On-bead Digestion below were used.
On the next day, the cells were transfected using pRK5-Avi-HA-ubiquitin or pRK5-A3-HA-ubiquitin in serum-free DMEM.

Cc1ccc(NC(=O)NCc2ccc3c(c2)CN(C2CCC(=O)NC2=O)C3=O)cc1Cl (centres unmarked) [CC-885]
Specific signal, normalized GSPT1/biotin ratios (A3-tag compared to Avi-tag, FIG. 6C): increase in specific signal | Sensitivity in detecting CC-885-induced ubiquitination of GSPT1 by CRBN (A3-tag, FIG. 6C): 36.39 | Ubiquitinated GSPT1 captured by streptavidin beads compared with DMSO (Avi-HA-Ub, 1 μM, 2 hours, Western blot quantification (FIG. 5C)): 6-12 fold | Mono- and poly-ubiquitinated GSPT1 captured by streptavidin beads (Avi-HA-Ub, FIG. 5C): only observed in conditions where CC-885 was present | Sensitivity in detecting CC-885-induced ubiquitination of GSPT1 by CRBN (Avi-tag, FIG. 6C): 15.46
